What was measured:
[1] = Stability in human plasma; format: in vitro ADME; conditions: over 120 minutes
[2] = test system: differentiated HepaRG cells; assay: Viability/cytotoxicity in differentiated HepaRG cells; format: cell-based, human; conditions: 48 h treatment
[3] = target: T1, PPARα (Homo sapiens, UniProt Q07869); assay: Luciferase reporter assay with GAL4 construct with LBD, PPARα; format: cell-based; conditions: 10 μM/L
T1 construct: luciferase reporter assays with a GAL4 constructs with LBD of tested nuclear receptors; expressed in transfected cells
T1 sequence (Q07869 239-466 limits assumed): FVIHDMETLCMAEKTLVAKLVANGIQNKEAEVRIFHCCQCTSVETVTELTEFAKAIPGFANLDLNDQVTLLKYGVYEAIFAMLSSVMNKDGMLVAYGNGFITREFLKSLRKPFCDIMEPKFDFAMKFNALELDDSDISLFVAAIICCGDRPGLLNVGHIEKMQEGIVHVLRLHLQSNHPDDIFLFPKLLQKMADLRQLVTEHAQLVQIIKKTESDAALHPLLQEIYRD

[4] = test system: primary human hepatocytes; assay: Viability/cytotoxicity in primary human hepatocytes; format: cell-based; conditions: 48 h treatment
[5] = Human plasma protein binding (micro-equilibrium dialysis); format: in vitro ADME; conditions: at 1 μM/L
[6] = Pharmacokinetic studies in mice
[7] = test system: COS-1 cells; assay: Cytotoxicity, cell viability (MTS) in COS-1; format: cell-based, African green monkey; conditions: Chlorocebus sabaeus, 48-h treatment, no significant effect at 30 μM/L
Description: Cell viability in HepG2 and COS-1 cells after a 48 h treatment with test compounds at a concentration from 1 up to 30 μM was determined using the modified formazan-based […] assay. […] Briefly, the cells were treated with the test compounds or vehicle alone (DMSO) for 48 h. At the end of the treatment, 20 μl of MTS reagent was added directly to each culture wells and further cultivated for 1.5 h. Finally, the absorbance of converted formazan was recorded at 490 nm by plate reader (BioTec Synergy 2. Winooski. Vt. USA). Vehicle (DMSO) and TritonX100 (0.9%; v/v) controls of cell viability were set to be 100% and 0%, respectively.

[8] = target: T2, CAR variant 3 (Homo sapiens, UniProt Q14994, DEL233-236); assay: Luciferase reporter gene assay with CAR variant 3 in HepG2 cells; format: cell-based; conditions: tested at 1 μM; HepG2, 24 h
T2 construct: expressed in transfected cells; host or cells: HepG2
T2 sequence (Q14994 with tags, fused parts or gaps isoform Q14994-8 DEL233-236): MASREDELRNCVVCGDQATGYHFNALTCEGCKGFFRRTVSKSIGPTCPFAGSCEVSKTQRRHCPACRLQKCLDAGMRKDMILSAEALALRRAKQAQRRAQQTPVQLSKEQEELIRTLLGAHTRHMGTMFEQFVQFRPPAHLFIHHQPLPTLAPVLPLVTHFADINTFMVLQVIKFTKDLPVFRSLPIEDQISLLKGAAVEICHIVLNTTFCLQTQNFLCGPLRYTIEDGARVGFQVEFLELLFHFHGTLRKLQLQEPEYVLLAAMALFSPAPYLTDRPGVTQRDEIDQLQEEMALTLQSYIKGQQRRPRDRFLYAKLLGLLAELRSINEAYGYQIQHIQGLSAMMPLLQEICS
T2 sequence (P19793 1-462 partner): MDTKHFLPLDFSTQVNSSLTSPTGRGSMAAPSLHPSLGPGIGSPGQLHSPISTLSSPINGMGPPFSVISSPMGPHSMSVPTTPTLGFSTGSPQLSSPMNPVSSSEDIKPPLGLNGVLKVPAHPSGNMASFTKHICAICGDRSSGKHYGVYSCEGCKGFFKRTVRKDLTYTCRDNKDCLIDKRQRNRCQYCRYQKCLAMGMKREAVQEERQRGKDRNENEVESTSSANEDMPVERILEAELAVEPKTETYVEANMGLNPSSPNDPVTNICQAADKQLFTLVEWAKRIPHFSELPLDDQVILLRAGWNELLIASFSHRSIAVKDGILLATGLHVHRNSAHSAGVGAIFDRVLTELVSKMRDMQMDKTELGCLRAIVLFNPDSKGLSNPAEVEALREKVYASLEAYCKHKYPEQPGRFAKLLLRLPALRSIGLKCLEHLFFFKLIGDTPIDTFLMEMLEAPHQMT

[9] = target: T3, human CYP2D6 (Homo sapiens, UniProt P10635); assay: Commercial CYP450-Glo inhibition assay, CYP2D6; format: in vitro ADME
T3 construct: purchased Promega V8891
T3 sequence (P10635 whole entry): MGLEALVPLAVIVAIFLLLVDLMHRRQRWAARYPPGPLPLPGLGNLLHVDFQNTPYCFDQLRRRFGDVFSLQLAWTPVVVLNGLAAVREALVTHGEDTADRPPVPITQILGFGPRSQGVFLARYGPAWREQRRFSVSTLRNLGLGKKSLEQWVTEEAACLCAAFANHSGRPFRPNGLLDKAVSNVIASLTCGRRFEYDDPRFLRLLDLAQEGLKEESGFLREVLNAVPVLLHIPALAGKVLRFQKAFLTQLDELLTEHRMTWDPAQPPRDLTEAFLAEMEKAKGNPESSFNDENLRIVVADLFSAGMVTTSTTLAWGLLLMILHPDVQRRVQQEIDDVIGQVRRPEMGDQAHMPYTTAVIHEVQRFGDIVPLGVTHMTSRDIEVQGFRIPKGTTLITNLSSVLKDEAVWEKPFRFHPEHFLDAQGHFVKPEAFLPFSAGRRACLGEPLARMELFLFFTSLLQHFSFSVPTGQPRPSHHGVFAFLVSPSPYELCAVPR

[10] = target: T4, human CAR LBD (Homo sapiens, UniProt Q14994); assay: CAR LBD assembly assay (two hybrid luciferase reporter in HepG2 cells); format: cell-based
T4 construct: C (151-349 aa) and N (103-150 aa) terminal parts of human CAR LBD; N (103-150 aa) terminal parts of human CAR LBD; expressed in transfected cells; host or cells: HepG2
T4 sequence (Q14994 151-348 isoform Q14994-2 limits assumed): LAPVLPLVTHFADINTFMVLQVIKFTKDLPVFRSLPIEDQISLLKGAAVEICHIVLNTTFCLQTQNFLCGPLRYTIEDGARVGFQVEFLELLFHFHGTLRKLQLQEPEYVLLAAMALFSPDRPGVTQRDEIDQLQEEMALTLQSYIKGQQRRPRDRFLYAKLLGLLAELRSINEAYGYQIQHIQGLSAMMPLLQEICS
T4 sequence (Q14994 103-150 isoform Q14994-2 limits assumed): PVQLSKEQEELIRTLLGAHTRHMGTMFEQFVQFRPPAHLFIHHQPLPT
Description: A ligand promotes connection of the two parts of CAR LBD resulting in luciferase transactivation. Luminescence activity in the cell lysate was measured using a commercially available luciferase detection system (Catalog Number E1960, Dual Luciferase Reporter Assay Kit, Promega, Madison, Wis., USA). The data are presented as means and S.D. and expressed as the fold-change of firefly luciferase activity normalized to Renilla luciferase activity in each sample and relative to the vehicle (DMSO 0.1%)-treated controls, which were set at 1.

[11] = target: T5, live X receptor α (Homo sapiens, UniProt Q13133); assay: Luciferase reporter assay with GAL4 construct with LBD, live X receptor α; format: cell-based; conditions: 10 μM/L
T5 construct: luciferase reporter assays with a GAL4 constructs with LBD of tested nuclear receptors; expressed in transfected cells
T5 sequence (Q13133 209-447 limits assumed): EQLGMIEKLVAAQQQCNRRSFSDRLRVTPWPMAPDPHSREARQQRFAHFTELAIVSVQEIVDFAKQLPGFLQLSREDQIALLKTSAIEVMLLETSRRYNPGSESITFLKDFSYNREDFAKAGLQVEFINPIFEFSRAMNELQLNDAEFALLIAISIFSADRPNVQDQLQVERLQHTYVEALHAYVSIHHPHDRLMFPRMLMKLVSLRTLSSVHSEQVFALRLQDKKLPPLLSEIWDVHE

[12] = target: T6, vitamin D receptor (Homo sapiens, UniProt P11473); assay: Luciferase reporter assay with GAL4 construct with LBD, vitamin D receptor; format: cell-based; conditions: 10 μM/L
T6 construct: luciferase reporter assays with a GAL4 constructs with LBD of tested nuclear receptors; expressed in transfected cells
T6 sequence (P11473 127-423 limits assumed): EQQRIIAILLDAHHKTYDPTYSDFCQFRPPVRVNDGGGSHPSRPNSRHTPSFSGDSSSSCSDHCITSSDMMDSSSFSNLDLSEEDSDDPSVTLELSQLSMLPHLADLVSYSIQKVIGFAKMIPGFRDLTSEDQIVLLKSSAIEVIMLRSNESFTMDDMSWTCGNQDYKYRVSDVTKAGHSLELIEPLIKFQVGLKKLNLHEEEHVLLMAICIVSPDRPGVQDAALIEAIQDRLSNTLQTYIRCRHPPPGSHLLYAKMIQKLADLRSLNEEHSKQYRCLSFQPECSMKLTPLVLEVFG

[13] = target: T7, human PXR (Homo sapiens, UniProt O75469); assay: PXR-responsive luciferase reporter gene assay in HepG2 cells
T7 sequence (O75469 1-434): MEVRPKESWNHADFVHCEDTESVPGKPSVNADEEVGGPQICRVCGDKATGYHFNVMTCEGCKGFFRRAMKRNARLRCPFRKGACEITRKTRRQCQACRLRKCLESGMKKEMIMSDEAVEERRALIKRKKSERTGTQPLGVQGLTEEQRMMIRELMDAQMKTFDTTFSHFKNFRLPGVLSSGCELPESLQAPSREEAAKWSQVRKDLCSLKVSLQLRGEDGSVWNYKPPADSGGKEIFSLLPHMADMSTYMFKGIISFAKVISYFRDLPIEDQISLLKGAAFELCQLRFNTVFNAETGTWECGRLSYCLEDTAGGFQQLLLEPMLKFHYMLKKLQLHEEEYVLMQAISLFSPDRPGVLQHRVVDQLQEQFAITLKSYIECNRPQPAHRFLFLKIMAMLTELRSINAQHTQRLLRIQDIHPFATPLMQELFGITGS

SMILES: NC(=O)c1cc(Cn2cc(-c3c(-c4ccc(Cl)cc4)nc4cc(F)ccn34)nn2)ccc1Cl [Example 93, 2-Chloro-5-((4-(2-(4-chlorophenyl)-7-fluoroimidazo[1,2-a]pyridin-3-yl)-1H-1,2,3-triazol-1-yl)methyl)benzamide]
- stability in human plasma [1]: stable
- viability/cytotoxicity in differentiated HepaRG cells [2]: no effect on viability/cytotoxicity
- activation of PPARα [3]: do not activate
- viability/cytotoxicity in primary human hepatocytes [4]: no effect on viability/cytotoxicity
- fraction unbound at 1 μM [5]: 0.01
- Bioavailability (F) based on AUCp.o./AUCi.p. ratio ([6]; 10 mg/kg, C57BL/6N mice): 98.6%
- delivery into the liver and bile ([6]; FIG. 6): excellent delivery into the liver and bile
- IC50 [7]: > 30 µM
- CAR3 % of CITCO (1 μM) activity at 1 μM [8]: 83%
- IC50 [9]: > 10 µM
- EC50 [10]: 0.38 µM
- activation of live X receptor α [11]: do not activate
- activation of vitamin D receptor [12]: do not activate
- PXR % of RIF activity (10 μM) at 10 μM ([13]; tested at 10 μM, HepG2, 24 h): No activation
- selectivity and specificity for human CAR in comparison with CITCO (FIG. 2) ([13]; versus PXR): highly selective and specific for human CAR

— patent US20220185822A1, “SELECTIVE LIGANDS OF HUMAN CONSTITUTIVE ANDROSTANE RECEPTOR” (USTAV ORGANICKE CHEMIE A BIOCHEMIE AV CR, V.V.I., priority 2019, published 2022)
